Values joined by “and” are separate entries in the source; they are usually repeats but may differ in a detail not shown here. Identical values can stand only once. “Also recorded” adds a separate entry of the source. Like-named read-outs stand apart in the source and are kept apart here.

In assay [1] the target is T1, P2Y receptor (turkey erythrocyte membranes) (Meleagris gallopavo, UniProt P49652).
T1 construct: from tissue; host or cells: washed turkey erythrocytes, ghosts prepared by hypotonic lysis
T1 sequence (P49652 whole entry): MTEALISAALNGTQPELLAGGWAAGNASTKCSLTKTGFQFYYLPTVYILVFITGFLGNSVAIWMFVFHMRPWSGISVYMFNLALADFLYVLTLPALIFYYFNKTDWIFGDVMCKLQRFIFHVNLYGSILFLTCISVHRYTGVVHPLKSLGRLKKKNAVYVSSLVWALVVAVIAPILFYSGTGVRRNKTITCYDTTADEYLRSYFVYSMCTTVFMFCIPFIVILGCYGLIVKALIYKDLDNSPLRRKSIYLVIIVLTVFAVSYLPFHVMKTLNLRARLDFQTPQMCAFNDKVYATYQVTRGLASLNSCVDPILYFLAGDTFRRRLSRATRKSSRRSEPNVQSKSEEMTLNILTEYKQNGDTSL
The assay can be described thus: Stimulation of phospholipase C (inositol phosphate formation) in turkey erythrocyte membranes. The assay is classed as biochemical. To be noted: for EC50 / activity/potency in words, turkey erythrocyte: turkey erythrocyte membranes. The protocol:
Phospholipase C activity: Stimulation of inositol phosphate formation by compounds of the present invention was measured in turkey erythrocyte membranes as described by Harden et al., supra and Boyer et al., supra. The K0.5 values were averaged from 3-8 independently determined dose-response curves for each compound. Briefly, one ml of washed turkey erythrocytes was incubated in inositol-free medium (DMEM; Gibco) with 0.5-1 mCi of 2-[^3 H]myoinositol (20 Ci/mmol; American Radiolabeled Chemicals Inc., St. Louis, Mo.)for 18-24 h in a humidified atmosphere of 95% air 5% CO2 at 37° C. Erythrocyte ghosts were prepared by rapid lysis in hypotonic buffer (5 mM sodium phosphate, pH 7.4, 5 mM MgCl2, 1 mM EGTA) as described by Boyer et al., supra. Phospholipase C activity was measured in 25 μl of [^3 H]inositol-labeled ghosts (≈175 μg of protein, 200-500,000 cpm/assay) in a medium containing 424 μM CaC12, 0.91 mM MgSO4, 2 mM EGTA, 115 mM KCl, 5 mM KH2 PO4, and 10 mM Hepes, pH 7.0. Assay (100 μl or 200 μl final volume) contained 1 μM GTPγS and the indicated concentrations of nucleotide analogs. Ghosts were incubated at 30° C. for 5 min, and total [^3 H]inositol phosphates were quantitated after purification by anion exchange chromatography according to Harden et al. (supra) and Boyer et al. (supra).
(§1) Phospholipase C activity and muscle relaxation/contraction effects were assessed using the methods recited in Example 3. In FIGS. 10-12, which present the result of assays of phospholipase C activity in turkey erythrocyte membranes, the x-axis is marked in units of the log of the molar concentration of the putative P2Y receptor agonist tested and the y-axis is marked in units of the percentage of maximum production of [^3 H]-inositol phosphate generated. In FIG. 13, the x-axis is marked in units of the negative log of the molar concentration of applied putative P2Y receptor agonists and the y-axis is marked in units of the percentage relaxation of the 50 nM carbachol-induced contraction of guinea pig taenia coli. In FIG. 14, the x-axis is also marked in units of the negative log of the molar concentration of applied putative P2Y receptor agonists and the y-axis is marked in units of the percentage relaxation of the 1 μM noradrenalin-induced contraction of rabbit aorta endothelium. In FIGS. 15-16, the x-axis is marked in units of the negative log of the molar concentration of applied putative p^2X receptor agonists and the y-axis is marked in units of the percentage contraction relative to a standard dose of KCl (i.e., 60 mM), as assessed in guinea pig isolated urinary bladder detrussor muscle (FIG. 15) and guinea pig isolated vas deferens (FIG. 16).

The target of assay [2] is T2, P2Y receptor (taenia coli) (Cavia porcellus, UniProt P59902).
T2 construct: Relaxant responses mediated via P2Y receptors were examined in guinea pig taenia coli; from tissue; host or cells: guinea pig taenia coli (carbachol-contracted)
T2 sequence (P59902 whole entry): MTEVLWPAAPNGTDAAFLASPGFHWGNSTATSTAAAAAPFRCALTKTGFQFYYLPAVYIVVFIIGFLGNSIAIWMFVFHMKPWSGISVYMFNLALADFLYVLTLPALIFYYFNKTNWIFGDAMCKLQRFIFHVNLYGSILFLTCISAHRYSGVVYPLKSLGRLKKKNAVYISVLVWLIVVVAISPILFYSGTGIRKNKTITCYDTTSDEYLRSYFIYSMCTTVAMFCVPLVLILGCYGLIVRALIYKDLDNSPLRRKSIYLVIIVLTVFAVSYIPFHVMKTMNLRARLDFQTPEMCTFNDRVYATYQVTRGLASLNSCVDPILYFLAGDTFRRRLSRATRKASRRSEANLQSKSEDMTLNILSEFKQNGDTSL
The assay is described as follows: Relaxation of carbachol-contracted guinea pig taenia coli. To be noted: for activity/potency in words, taenia coli: guinea pig taenia coli.
From the text: (§2) Muscular relaxation/contraction: Relaxant responses mediated via P2Y receptors were examined in guinea pig taenia coli, rabbit aorta, and rabbit mesenteric artery, as described by Hoyle et al. (Br. J. Pharmacol., 107, 367-374 (1992a)), Burnstock et al., (Br. J. Pharmacol., 90, 383-391 (1987a)), and Rubino et al., (Eur. J. Pharmacol., 212, 237-240 (1992)). Contractile responses mediated via P2X receptors were examined in the guinea pig urinary bladder and vas deferens, and rabbit saphenous artery, also using standard methods (see Hoyle et al., supra., 1992; Hoyle et al., Br. J. Pharmacol., 99, 617-621 (1990); and Burnstock et al., Br. J. Pharmacol., 90, 111-120 (1987b)).
Muscular relaxation assays were performed as recited in Example 3. […] All curves are the mean of two determinations except for 5'-ATP (n=38), 2-hexylthio-ATP (n=4), 2-(5-hexenyl)thio-ATP (n=3), and 2-(2-4-nitrophenylethyl)thio-AMP (n=5). […] The pD2 value for 2-methylthio-ATP is 8.0±0.15, as reported by Hoyle et al., in Receptor Data for Biological Experiments, (H. N. Doods and J. C. A. Van Meel, eds., 1992b) at pp. 54-61.
as §1

The target in assay [3] is T3, adenylyl cyclase linked P2Y receptor (C6 rat glioma cells) (Rattus norvegicus, UniProt Q9EPX4).
T3 construct: endogenous in cells; host or cells: C6 rat glioma cells
T3 sequence (Q9EPX4 whole entry): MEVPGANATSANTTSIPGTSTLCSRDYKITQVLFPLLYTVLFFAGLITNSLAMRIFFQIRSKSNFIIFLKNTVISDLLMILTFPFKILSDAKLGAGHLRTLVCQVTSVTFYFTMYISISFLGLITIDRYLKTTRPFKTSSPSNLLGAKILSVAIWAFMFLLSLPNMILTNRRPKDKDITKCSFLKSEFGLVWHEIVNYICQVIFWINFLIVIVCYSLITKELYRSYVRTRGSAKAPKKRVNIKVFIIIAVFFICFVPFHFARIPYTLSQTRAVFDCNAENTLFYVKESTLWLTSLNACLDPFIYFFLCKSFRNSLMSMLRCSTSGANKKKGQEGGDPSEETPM
The assay is described as follows: Inhibition of adenylyl cyclase in C6 rat glioma cells. The following applies: for IC50: C6 rat glioma cells, 10 μM isoproterenol, read-out: K0.5 values (in nM) for inhibition of adenylyl cyclase in C6 cells. The format is cell-based. The protocol:
This example illustrates the inhibition of adenylyl cyclase activity in C6 rat glioma cells, as a function of the presence of certain ATP analogs in the medium in which the C6 cells were cultured.
Cells were labelled by incubation for 2 hours in the presence of 1 to 2 mCi of tritiated adenine/ml in the medium. Cells were washed twice with HEPES (20 mM, pH 7.5)-buffered Eagle's medium and then preincubated for 10 minutes at 37° C. with fresh medium containing 200 μM 3-isobutyl-1-methylxanthine. Agonist incubations were initiated by the simultaneous addition of 10 μM isoproterenol and various concentrations of nucleotides. The reactions were stopped after 10 minutes of aspiration of the nucleotide-containing medium and addition of 1 ml of ice-cold 5% trichloroacetic acid.

Assay [4] concerns P2Y receptor (aorta endothelium). The assay is described as follows: Relaxation of noradrenalin-contracted rabbit aorta. To be noted: for relaxation pD2, aorta: rabbit aorta, log molar units; for activity/potency/selectivity in words, aorta: rabbit aorta endothelial P2Y receptor.
For assay [5], the target named is P2Y receptor (mesenteric artery). The assay is described as follows: Relaxation of rabbit mesenteric artery. To be noted: for relaxation pD2, mes. artery: log molar units.
Assay [6] concerns the target T4, P2X receptor (saphenous artery) (Oryctolagus cuniculus, UniProt G1U3D6).
T4 construct: and rabbit saphenous artery; from tissue; host or cells: rabbit saphenous artery
T4 sequence (G1U3D6 1-399): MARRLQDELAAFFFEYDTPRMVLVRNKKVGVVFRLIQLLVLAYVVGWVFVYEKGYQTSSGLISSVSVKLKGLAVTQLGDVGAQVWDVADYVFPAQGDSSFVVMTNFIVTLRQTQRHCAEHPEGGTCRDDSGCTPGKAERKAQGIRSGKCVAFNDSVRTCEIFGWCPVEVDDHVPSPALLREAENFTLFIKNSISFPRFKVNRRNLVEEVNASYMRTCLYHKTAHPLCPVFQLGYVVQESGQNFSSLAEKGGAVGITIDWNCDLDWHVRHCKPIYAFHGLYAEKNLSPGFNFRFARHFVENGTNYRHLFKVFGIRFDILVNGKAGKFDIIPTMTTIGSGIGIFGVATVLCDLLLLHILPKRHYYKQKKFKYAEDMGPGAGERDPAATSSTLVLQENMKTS
The assay is described as follows: Contraction of rabbit saphenous artery. The following applies: rabbit saphenous artery.
From the text: as §2
^c For the saphenous artery, the percentages in brackets are response
at 10 μM relative to the contraction produced by 1 μM α,MeATP
ATP in this assay is very weak (EC50 =
1.78 mM). The highest concentrations of the analogues tested were 3-30

Assay [7] has as its target T5, P2X receptor (vas deferens) (Cavia porcellus, UniProt A0A286XVA9).
T5 sequence (A0A286XVA9 1-399): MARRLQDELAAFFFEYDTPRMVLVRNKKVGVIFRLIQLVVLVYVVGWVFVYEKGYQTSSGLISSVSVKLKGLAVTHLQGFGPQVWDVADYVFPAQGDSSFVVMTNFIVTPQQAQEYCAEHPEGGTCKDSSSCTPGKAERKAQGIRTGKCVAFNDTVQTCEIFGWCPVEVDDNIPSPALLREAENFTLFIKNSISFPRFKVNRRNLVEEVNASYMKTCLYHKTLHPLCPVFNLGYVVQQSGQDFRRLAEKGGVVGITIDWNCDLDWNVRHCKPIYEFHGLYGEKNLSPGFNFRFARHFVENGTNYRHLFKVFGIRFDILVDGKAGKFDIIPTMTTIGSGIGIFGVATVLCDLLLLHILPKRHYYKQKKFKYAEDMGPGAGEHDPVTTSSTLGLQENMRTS
The assay is described as follows: Contraction of guinea pig isolated vas deferens.

For assay [8], the target named is T6, P2X receptor (urinary bladder) (Cavia porcellus, UniProt A0A286XVA9).
T6 construct: guinea pig isolated urinary bladder detrussor muscle; from tissue; host or cells: guinea pig isolated urinary bladder detrusor muscle
The assay can be described thus: Contraction of guinea pig isolated urinary bladder detrussor muscle. The following applies: guinea pig urinary bladder.

The mark [9] stands for this setting: mean ± S.E.M. for at least 2 determinations, read-out: phosphatidyl inositol metabolism (K0.5, nM) erythrocyte.

Consider `C=CCCCCSc1nc(N)c2ncn([C@@H]3O[C@H](COP(=O)(O)OP(=O)(O)O)[C@@H](O)[C@H]3O)c2n1` [2-(5-Hexenyl)thio-ADP, 2-(5-hexenylthio)-adenosine 5'-diphosphate], for which the results for the EC50 in assay [1] (setting [9]), in assay [1] (read-out: K0.5) and in assay [2] were 6.8 ± 3 nM, 4 nM and 3.63 nM, respectively. For the same molecule, the IC50 in assay [3] turned out to be 0.07 ± 0.02 nM. Besides, the “selectivity for the adenylyl cyclase linked receptor, in words” value in assay [3] (versus phospholipase C linked receptor) is recorded as “approximately the same degree of selectivity”.

Regarding `C=CCCCCSc1nc(N)c2ncn([C@@H]3O[C@H](COP(=O)(O)O)[C@@H](O)[C@H]3O)c2n1` [2-(5-Hexenyl)thio-AMP, 2-(5-hexenylthio)adenosine 5'-monophosphate], the “fold less potent than the corresponding triphosphate, turkey erythrocyte” value in assay [1] (relative to corresponding triphosphate) was 33 -fold. Also, the EC50 in assay [1] (setting [9]) was 328 ± 43 nM; in assay [2] it was 1000 nM. Also, the “relaxation pD2, aorta” value in assay [4] worked out at 7.0. The “relaxation pD2, mes. artery” value in assay [5] was found to be 6.3. For the same molecule, in assay [3], the IC50 stood at 2 ± 0.18 nM.

`C=CCCCCSc1nc(N)c2ncn([C@@H]3O[C@H](COP(=O)(O)OP(=O)(O)OP(=O)(O)O)[C@@H](O)[C@H]3O)c2n1` [2-(S-Hexenyl)thio-ATP, 2-(5-hexenylthio)adenosine 5'-triphosphate]: the “activity/potency in words, turkey erythrocyte” value in assay [1] is on record as “at least two orders of magnitude more potent”. In addition, the EC50 in assay [1] (setting [9]) was 10 ± 4 nM; in assay [1] (read-out: K0.5) it was 5 to 30 nM and 10 nM; in assay [2], 12.6 nM. Besides, the “activity/potency in words, taenia coli” value in assay [2] is reported as “significantly more potent than ATP itself, at least by one order of magnitude”. The “relaxation pD2, mes. artery” value in assay [5] was determined as 7.0. The IC50 in assay [3] amounted to 0.12 ± 0.06 nM.

With `CCCCCCSc1nc(N)c2ncn([C@@H]3O[C@H](COP(=O)(O)OP(=O)(O)OP(=O)(O)O)[C@@H](O)[C@H]3O)c2n1` [2-Hexylthio-ATP, 2-hexylthio-ATP], the “activity/potency in words, turkey erythrocyte” value in assay [1] is on record as “at least two orders of magnitude more potent”. Moreover, the EC50 in assay [1] (setting [9]) is 5 ± 1 nM; in assay [1] (read-out: K0.5) it was 5 to 30 nM; in assay [2] it was 31.6 nM. Further, the “activity/potency in words, taenia coli” value in assay [2] is “significantly more potent than ATP itself, at least by one order of magnitude”. For the same molecule, the “relaxation pD2, aorta” value in assay [4] stood at 6.7. In addition, in assay [5], the “relaxation pD2, mes. artery” value was determined as 6.7. Further, in assay [3], the IC50 is 0.03 ± 0.005 nM. Further, the “selectivity for the adenylyl cyclase linked (C6 cell) receptor” value in assay [3] (versus phospholipase C linked turkey erythrocyte receptor) was 170 -fold.

Consider `Nc1ncnc2c1ncn2[C@@H]1O[C@H](COP(=O)(O)OP(=O)(O)OP(=O)(O)O)[C@@H](NC(=O)CCc2ccc(O)cc2)[C@H]1O` [3'-[3-(p-Hydroxyphenyl)propionylamino]-3'-deoxyadenosine 5'-triphosphate], for which the “activity/potency in words, turkey erythrocyte” value in assay [1] is “nearly inactive”. In addition, the EC50 in assay [1] (setting [9]) was above 100000 nM. For the same molecule, the “activity/potency in words, taenia coli” value in assay [2] is “nearly inactive”. The “activity/potency/selectivity in words, aorta” value is listed as “considerably more potent than ATP in the aorta” in assay [4] (listed as 3'-[3-(4-hydroxyphenyl)-propionylamino]-3'-deoxy-ATP) and “a high degree of selectivity for the aortic endothelial P2Y receptor” in assay [4] (listed as 3-(p-Hydroxyphenyl-propionylamino-3'-deoxy-ATP)). The “activity/potency in words, mesenteric artery” value in assay [5] is “inactive in the mesenteric artery”. Also, the “activity/potency in words, saphenous artery” value in assay [6] was “inactive in the saphenous artery”. In assay [7], the “activity/potency in words, vas deferens” value was “more or less as potent as ATP”. Besides, the “activity/potency in words, bladder” value in assay [8] is given as “more or less as potent as ATP”.

Take `O=c1[nH]c(=O)n([C@@H]2O[C@H](COP(=O)(O)OP(=O)(O)OP(=O)(O)O)[C@@H](O)[C@H]2O)cc1F` [5-F-UTP, 5-Fluorouridine 5'-triphosphate]: the “activity/potency in words, turkey erythrocyte” value in assay [1] is listed as “only a weak agonist”. Also, the EC50 in assay [1] (setting [9]) was above 100000 nM. Moreover, the “activity/potency in words, taenia coli” value in assay [2] is reported as “only a weak agonist”. In assay [4], the “activity/potency/selectivity in words, aorta” value is recorded as “more potent than ATP” and the “relaxation pD2, aorta” value worked out at 6.0. Also, the “activity/potency in words, mesenteric artery” value in assay [5] is “inactive”. Further, the “activity/potency in words, saphenous artery” value in assay [6] is “inactive”. Besides, the “activity/potency in words, vas deferens” value in assay [7] was “inactive; also recorded: without effect in the vas deferens”. In addition, the “activity/potency in words, bladder” value in assay [8] is on record as “more potent than ATP; also recorded: as potent as or more potent than ATP in the bladder”.

(Values after US5620676A, “Biologically active ATP analogs” (priority 1995, dated 1997).)
